Values joined by “and” are separate entries in the source; they are usually repeats but may differ in a detail not shown here. Equal entries are not always repeated.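 Five concentrations, 48 hours, 96-well plates. At the GI50, growth is halved. Definition used: TGI = concentration required for complete inhibition of growth.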
How the values were obtained:
Assay in all cases: NCI tumour cell line growth inhibition, 48 h
M14 melanoma = system: M14 melanoma
MDA-MB-435 = system: MDA-MB-435
NCI-H226 lung = system: NCI-H226 lung
OVCAR-8 ovarian = system: OVCAR-8 ovarian
RXF 393 renal = system: RXF 393 renal
SK-MEL-28 melanoma = system: SK-MEL-28 melanoma
SK-MEL-5 melanoma = system: SK-MEL-5 melanoma
SK-OV-3 ovarian = system: SK-OV-3 ovarian
SNB-75 CNS = system: SNB-75 CNS
UO-31 renal = system: UO-31 renal

| SMILES | TGI (M14 melanoma) [µM] | TGI (MDA-MB-435) [µM] | TGI (NCI-H226 lung) [µM] | TGI (OVCAR-8 ovarian) [µM] | TGI (RXF 393 renal) [µM] | TGI (SK-MEL-28 melanoma) [µM] | TGI (SK-MEL-5 melanoma) [µM] | TGI (SK-OV-3 ovarian) [µM] | TGI (SNB-75 CNS) [µM] | TGI (UO-31 renal) [µM] | GI50 (M14 melanoma) | GI50 (MDA-MB-435) | GI50 (NCI-H226 lung) [µM] | GI50 (OVCAR-8 ovarian) [µM] | GI50 (RXF 393 renal) | GI50 (SK-MEL-28 melanoma) [µM] | GI50 (SK-MEL-5 melanoma) [µM] | GI50 (SK-OV-3 ovarian) [µM] | GI50 (SNB-75 CNS) [µM] | GI50 (UO-31 renal) [µM] |
| --- | --- | --- | --- | --- | --- | --- | --- | --- | --- | --- | --- | --- | --- | --- | --- | --- | --- | --- | --- | --- |
| CCCC(=O)NC1=C(Cl)C(=O)c2ccccc2C1=O | 13 | 13.3 | 29.9 | 34.8 | 6.08 | 17 | 6.85 | 27.1 | 20.2 | 8.99 |  |  |  |  |  |  |  |  |  |  |
| CN[C@H]1C=C[C@@H]2/C=C(C)/C=C/[C@@H](C)[C@H]([C@H](C)[C@H](O)[C@@H](C)NC(C)=O)OC(=O)/C=C/C=C(C)\C=C\[C@]2(C)C1 | 7.24 | 9.14 | 10.3 | > 49 | 28.7 | 33.6 | 0.552 |  | 6.08 | > 49 | < 0.001 µM and 0.0049 µM | < 0.001 µM and 0.0049 µM | 0.00743 | 0.00922 | < 0.001 µM and 0.00674 µM | 0.00898 | 0.0049 | < 0.001 | 0.0049 | 0.00994 |
| CCCNNC(=O)/C=C/c1ccc(CNCCc2c(C)[nH]c3ccccc23)cc1 | 1.94 | 0.464 | 0.131 | 3.92 | 0.0479 | 0.0964 | 0.122 | 0.482 | 2.94 | 0.601 | 0.023 µM | 0.0494 µM | 0.0291 | 0.0149 | 0.011 µM | 0.0253 | 0.0447 | 0.0357 | 0.0753 | 0.0593 |
| Oc1[nH]c2ccccc2c1N=Nc1ccccn1 | > 100 | > 100 | 61.7 | 26.3 | > 100 | > 100 | > 100 | 38.1 | 86.6 | 33.7 |  |  |  |  |  |  |  |  |  |  |
| CN(C)CCCNC(=O)c1cc(NC(=O)c2cc(NC(=O)CCc3c[nH]c4ccccc34)cn2C)cn1C | > 100 | > 100 | > 100 | > 100 | > 100 | > 100 | > 100 | > 100 | > 100 | > 100 | > 100 µM | > 100 µM | > 100 | > 100 | > 100 µM | > 100 | > 100 | > 100 | > 100 | > 100 |
| C=C1C(=O)O[C@@H]2C[C@@H](C)[C@@H]3C=CC(=O)[C@@]3(C)[C@@H](OC(=O)CC(=O)O[C@H]3[C@@H]4C(=C)C(=O)O[C@@H]4C[C@@H](C)[C@@H]4C=CC(=O)[C@]43C)[C@H]12 | 0.0845 | 0.144 | 0.3 | 0.0591 | 0.0258 | 0.11 | 0.215 | 0.785 | 1.54 | 0.271 |  |  |  |  |  |  |  |  |  |  |
| CC(=O)O[C@H]1CC[C@@]2(C)C(=CC[C@H]3[C@@H]4CC[C@H](c5cc(C(F)(F)F)n(C(C)=O)n5)[C@@]4(C)CC[C@@H]32)C1 | 22.1 | 21.4 | 20.8 | 24.8 | 17.8 | 28.9 | 15.3 | 25.4 | 20.8 | 3.23 |  |  |  |  |  |  |  |  |  |  |
| [Cl][Hg][Cl] | 32.2 | 30.2 | 47.7 | 56.3 | 32.6 | 29.8 | 30.5 | 34.5 | 34.8 | 37.2 | 16.2 µM | 15.7 µM | 25.1 | 21.6 | 18.2 µM | 15.3 | 15.4 | 20.2 | 18 | 22.7 |

— PubChem BioAssay (NCI)
